Data published in patent US9951065B2 (Gilead Sciences, Inc., priority 2015, dated 2018).
pEC50: −log10 of the molar value.

molecular target: T1, IDO1 (Homo sapiens, UniProt P14902); assay: Cell-based (HeLa) assay for measurement of IDO1 inhibition (kynurenine levels in supernatant after IFNγ induction); conditions: HeLa cells, IFNγ-induced IDO1, kynurenine in supernatant after 48 hour incubation; geometric mean of a minimum of four determinations
T1 construct: HeLa cells were treated with a test compound in the presence of IFNγ, which induces IDO1 expression; host or cells: H1-HeLa cells, IDO1 induced with IFNγ
T1 sequence (P14902 whole entry): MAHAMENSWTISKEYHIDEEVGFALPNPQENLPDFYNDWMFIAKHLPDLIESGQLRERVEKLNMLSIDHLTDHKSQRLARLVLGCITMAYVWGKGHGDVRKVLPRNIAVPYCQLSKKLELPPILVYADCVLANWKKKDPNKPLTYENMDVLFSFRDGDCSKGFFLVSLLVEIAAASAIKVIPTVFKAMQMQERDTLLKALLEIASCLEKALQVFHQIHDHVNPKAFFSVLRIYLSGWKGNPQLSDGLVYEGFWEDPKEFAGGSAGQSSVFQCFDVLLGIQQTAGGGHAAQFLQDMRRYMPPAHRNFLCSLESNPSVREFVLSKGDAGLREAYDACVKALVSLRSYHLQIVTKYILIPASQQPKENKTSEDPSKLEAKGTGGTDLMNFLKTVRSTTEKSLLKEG
How it was run: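 HeLa cells, 1,250 per well, treated with compound (0.5% DMSO final) plus IFNγ to induce IDO1, for 48 h. Supernatant kynurenine measured by TCA hydrolysis at 60 °C, then p-dimethylaminobenzaldehyde, absorbance 480 nm. EC50 from a four-parameter fit normalized to −/+IFNγ controls; geometric mean of at least four runs.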

| SMILES | pEC50 |
| --- | --- |
| O/N=C(\Nc1cccc(Br)c1)c1ccnc2nc(CCN3CCCC3)[nH]c12 [Example 269, N-(3-bromophenyl)-N′-hydroxy-2-(2-(pyrrolidin-1-yl)ethyl)-1H-imidazo[4,5-b]pyridine-7-carboximidamide] | 6.01 |
| O/N=C(\Nc1ccc(F)c(Cl)c1)c1ccnc2nc(CNCC3CCCOC3)[nH]c12 (stereo not shown) [Example 129, N-(3-Chloro-4-fluorophenyl)-N′-hydroxy-2-((((tetrahydro-2H-pyran-3-yl)methyl)amino)methyl)-1H-imidazo[4,5-b]pyridine-7-carboximidamide] | 5.59 |
| CC(C)NCc1nc2nccc(/C(=N/O)Nc3ccc(F)c(Cl)c3)c2[nH]1 [Example 116, N-(3-Chloro-4-fluorophenyl)-N′-hydroxy-2-((isopropylamino)methyl)-1H-imidazo[4,5-b]pyridine-7-carboximidamide] | 6.13 |
| N#Cc1cc(N/C(=N\O)c2ccnc3nc[nH]c23)ccc1F [Example 90, N-(3-Cyano-4-fluorophenyl)-N′-hydroxy-1H-imidazo[4,5-b]pyridine-7-carboximidamide] | 5.98 |
| O/N=C(\Nc1ccc(F)c(Cl)c1)c1ccnc2nc(CNCc3ccncc3)[nH]c12 [Example 133, N-(3-Chloro-4-fluorophenyl)-N′-hydroxy-2-(((pyridin-4-ylmethyl)amino)methyl)-1H-imidazo[4,5-b]pyridine-7-carboximidamide] | 5.43 |
| O/N=C(\Nc1ccc(F)c(Cl)c1)c1ccnc2nc(C3CCCN3)[nH]c12 (stereo not shown) [Example 152, N-(3-Chloro-4-fluorophenyl)-N′-hydroxy-2-(pyrrolidin-2-yl)-1H-imidazo[4,5-b]pyridine-7-carboximidamide] | 5.39 |
| O/N=C(\Nc1ccc(F)c(Cl)c1F)c1ccnc2nc[nH]c12 [Example 64, N-(3-Chloro-2,4-difluorophenyl)-N′-hydroxy-1H-imidazo[4,5-b]pyridine-7-carboximidamide] | 6.09 |
| O/N=C(\Nc1ccc(F)c(Cl)c1)c1ccnc2nc(NCCN3CCCC(F)C3)[nH]c12 (stereo not shown) [Example 237, N-(3-chloro-4-fluorophenyl)-2-((2-(3-fluoropiperidin-1-yl)ethyl)amino)-N′-hydroxy-1H-imidazo[4,5-b]pyridine-7-carboximidamide] | 6.35 |
| C#Cc1cc(N/C(=N\O)c2ccnc3nc[nH]c23)ccc1F [Example 97, N-(3-ethynyl-4-fluorophenyl)-N′-hydroxy-1H-imidazo[4,5-b]pyridine-7-carboximidamide] | 6.42 |
| COCCNCCc1nc2nccc(/C(=N/O)Nc3ccc(F)c(Cl)c3)c2[nH]1 [Example 190, N-(3-Chloro-4-fluorophenyl)-N′-hydroxy-2-(2-((2-methoxyethyl)amino)ethyl)-1H-imidazo[4,5-b]pyridine-7-carboximidamide] | 5.82 |
| O/N=C(\Nc1cccc(C(F)F)c1)c1ccnc2nc[nH]c12 [Example 98, N-(3-(difluoromethyl)phenyl)-N′-hydroxy-1H-imidazo[4,5-b]pyridine-7-carboximidamide] | 6.26 |
| O/N=C(\Nc1ccc(F)c(Cl)c1)c1ccnc2nc(C(O)C3CC3)[nH]c12 (stereo not shown) [Example 174, N-(3-Chloro-4-fluorophenyl)-2-(cyclopropyl(hydroxy)methyl)-N′-hydroxy-1H-imidazo[4,5-b]pyridine-7-carboximidamide] | 5.15 |
| O/N=C(\Nc1ccc(F)c(Cl)c1)c1cc(F)c(F)c2nc[nH]c12 [Example 10, N-(3-chloro-4-fluorophenyl)-4,5-difluoro-N′-hydroxy-1H-benzo[d]imidazole-7-carboximidamide] | 6.36 |
| O/N=C(\Nc1ccc(F)c(C(F)(F)F)c1)c1ccnc2nc[nH]c12 [Example 83, N-(4-Fluoro-3-(trifluoromethyl)phenyl)-N′-hydroxy-1H-imidazo[4,5-b]pyridine-7-carboximidamide] | 6.50 |
| CC(C)N(C)CCNc1nc2nccc(/C(=N/O)Nc3ccc(F)c(Cl)c3)c2[nH]1 [Example 240, N-(3-chloro-4-fluorophenyl)-N′-hydroxy-2-((2-(isopropyl(methyl)amino)ethyl)amino)-1H-imidazo[4,5-b]pyridine-7-carboximidamide] | 6.23 |
| O/N=C(\Nc1cccc2ccccc12)c1ccnc2nc[nH]c12 [Example 104, N′-hydroxy-N-(naphthalen-1-yl)-1H-imidazo[4,5-b]pyridine-7-carboximidamide] | 5.71 |

same assay, conditions: HeLa cells, IFNγ-induced IDO1, kynurenine in supernatant, 48 hour incubation; geometric mean of a minimum of four determinations

| SMILES | pEC50 |
| --- | --- |
| CC1(C)CNC1CNc1nc2c(F)c(F)cc(/C(=N/O)Nc3ccc(F)c(Cl)c3)c2[nH]1 (stereo not shown) [Example 472, N-(3-chloro-4-fluorophenyl)-2-(((3,3-dimethylazetidin-2-yl)methyl)amino)-4,5-difluoro-N′-hydroxy-1H-benzo[d]imidazole-7-carboximidamide] | 5.61 |
| O/N=C(\Nc1ccc(F)c(Cl)c1)c1cc(F)c(F)c2nc(NCC34CCCN3CCC4)[nH]c12 [Example 471, N-(3-chloro-4-fluorophenyl)-4,5-difluoro-2-(((hexahydro-1H-pyrrolizin-7a-yl)methyl)amino)-N′-hydroxy-1H-benzo[d]imidazole-7-carboximidamide] | 6.07 |
| CN1CCCCC1Cc1nc2nccc(/C(=N/O)Nc3ccc(F)c(Cl)c3)c2[nH]1 (stereo not shown) [Example 305, N-(3-chloro-4-fluorophenyl)-N′-hydroxy-2-((1-methylpiperidin-2-yl)methyl)-1H-imidazo[4,5-b]pyridine-7-carboximidamide] | 5.46 |
| CN(C)[C@@H]1CCC[C@H](Nc2nc3c(F)c(F)cc(/C(=N/O)Nc4ccc(F)c(Cl)c4)c3[nH]2)C1 [Example 440, N-(3-chloro-4-fluorophenyl)-2-(((1S,3R)-3-(dimethylamino)cyclohexyl)amino)-4,5-difluoro-N′-hydroxy-1H-benzo[d]imidazole-7-carboximidamide] | 5.18 |
| O/N=C(\Nc1ccc(F)c(Cl)c1)c1cc(F)c(F)c2nc(NCC3COCCN3)[nH]c12 (stereo not shown) [Example 467, N-(3-chloro-4-fluorophenyl)-4,5-difluoro-N′-hydroxy-2-((morpholin-3-ylmethyl)amino)-1H-benzo[d]imidazole-7-carboximidamide] | 5.67 |
| CN(C)C1(CNc2nc3c(F)c(F)cc(/C(=N/O)Nc4ccc(F)c(Cl)c4)c3[nH]2)CCCC1 [Example 438, N-(3-chloro-4-fluorophenyl)-2-(((1-(dimethylamino)cyclopentyl)methyl)amino)-4,5-difluoro-N′-hydroxy-1H-benzo[d]imidazole-7-carboximidamide] | 6.08 |
| CC(=O)NCCNc1nc2c(F)c(F)cc(/C(=N/O)Nc3ccc(F)c(Cl)c3)c2[nH]1 [Example 334, N-(2-((7-(N-(3-chloro-4-fluorophenyl)-N′-hydroxycarbamimidoyl)-4,5-difluoro-1H-benzo[d]imidazol-2-yl)amino)ethyl)acetamide] | 5.21 |
| C[C@@H]1CN(CCNc2nc3nccc(/C(=N/O)Nc4ccc(F)c(Cl)c4)c3[nH]2)C[C@H](C)O1 [Example 478, N-(3-chloro-4-fluorophenyl)-2-((2-((2S,6R)-2,6-dimethylmorpholino)ethyl)amino)-N′-hydroxy-1H-imidazo[4,5-b]pyridine-7-carboximidamide] | 6.00 |
| O=S(=O)(NCCNc1nc2c(F)c(F)cc(/C(=N/O)Nc3ccc(F)c(Cl)c3)c2[nH]1)c1ccccc1 [Example 339, N-(3-chloro-4-fluorophenyl)-4,5-difluoro-N′-hydroxy-2-((2-(phenylsulfonamido)ethyl)amino)-1H-benzo[d]imidazole-7-carboximidamide] | < 5.00 |
